Laboratory results published in patent US20240158446A1, “CYCLIC COMPOUND HAVING SELECTIVE INHIBITORY ACTION ON KRAS OVER HRAS AND NRAS” (CHUGAI SEIYAKU KABUSHIKI KAISHA, priority 2021, published 2024).

Assays:
[1] = biological target: GDP-bound HRAS wild-type protein (Homo sapiens, UniProt P01112); test: Binding to HRAS by surface plasmon resonance (SPR), Single Cycle Kinetics; details: SPR, GDP-bound HRAS wild-type protein vs GDP-bound KRAS wild-type protein
[2] = biological target: GDP-bound NRAS wild-type protein (Homo sapiens, UniProt P01111); test: Binding to NRAS by surface plasmon resonance (SPR), Single Cycle Kinetics; details: SPR, GDP-bound NRAS wild-type protein vs GDP-bound KRAS wild-type protein
GDP-bound NRAS wild-type protein, sequence (P01111 whole entry): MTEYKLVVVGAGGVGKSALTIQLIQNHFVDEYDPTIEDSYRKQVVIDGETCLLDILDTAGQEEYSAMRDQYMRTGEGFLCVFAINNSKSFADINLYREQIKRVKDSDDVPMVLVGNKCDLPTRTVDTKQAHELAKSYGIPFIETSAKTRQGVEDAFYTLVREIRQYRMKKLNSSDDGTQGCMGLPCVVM

[3] = biological target: GDP-bound KRAS wild-type protein (Homo sapiens, UniProt P01116); test: Binding to KRAS by surface plasmon resonance (SPR), Single Cycle Kinetics; details: SPR, Single Cycle Kinetics, GDP-bound KRAS wild-type protein; read-out: KRAS KD
GDP-bound KRAS wild-type protein, sequence (P01116 whole entry): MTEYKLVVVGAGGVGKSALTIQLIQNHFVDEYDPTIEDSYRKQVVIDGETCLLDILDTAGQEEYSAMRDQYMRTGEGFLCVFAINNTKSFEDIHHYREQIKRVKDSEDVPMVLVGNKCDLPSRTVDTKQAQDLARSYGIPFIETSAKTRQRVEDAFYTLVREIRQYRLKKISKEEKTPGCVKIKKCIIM

GDP-bound HRAS wild-type protein, sequence (P01112 whole entry): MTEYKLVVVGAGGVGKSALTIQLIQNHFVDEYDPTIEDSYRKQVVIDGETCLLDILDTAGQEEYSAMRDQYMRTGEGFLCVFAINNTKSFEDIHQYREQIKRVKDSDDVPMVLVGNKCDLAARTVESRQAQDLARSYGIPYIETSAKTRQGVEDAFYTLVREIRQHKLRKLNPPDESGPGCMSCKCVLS

| SMILES | HRAS/KRAS (ratio of KD value for HRAS to KD value for KRAS) [1] | NRAS/KRAS (ratio of KD value for NRAS to KD value for KRAS) [2] | Kd [3] [nM] |
| --- | --- | --- | --- |
| CCCN(C)C(=O)[C@@H]1CC(=O)N(C)[C@@H](C2CCC2)C(=O)N[C@@H]([C@@H](C)CC)C(=O)N(C)CC(=O)N(C)[C@H]2C/C=C\CCN(C2=O)[C@@H](Cc2ccc(C(F)(F)F)cc2)C(=O)N(C)CC(=O)N[C@@H](CCc2ccc(C(F)(F)F)c(OC)c2)C(=O)N2C[C@@H](C)C[C@H]2C(=O)NC2(CCC2)C(=O)N(C)[C@@H](C2CCCC2)C(=O)N1C [PP2072] | A (a compound having 10 or more and less than 20 is denoted as A) | A (a compound having 10 or more and less than 20 is denoted as A) | 0.12 |
| C#CC[C@H]1C(=O)N[C@@H]([C@@H](C)CC)C(=O)N(C)CC(=O)N(C)[C@H]2C/C=C\CCN(C2=O)[C@@H](Cc2ccc(C(F)(F)F)cc2)C(=O)N(C)CC(=O)N[C@@H](CCc2cc(F)c(C(F)(F)F)c(F)c2)C(=O)N2C[C@H](OCC)C[C@H]2C(=O)NC2(CC(C)(C)C2)C(=O)N(C)[C@@H](C2CCCC2)C(=O)N(C)[C@H](C(=O)N(C)CC)CC(=O)N1C [PP2073] | A (a compound having 10 or more and less than 20 is denoted as A) | A (a compound having 10 or more and less than 20 is denoted as A) | 0.078 |
| C#CC[C@H]1C(=O)N[C@@H]([C@@H](C)CC)C(=O)N(C)CC(=O)N(C)[C@H]2C/C=C\CCN(C2=O)[C@@H](Cc2ccc(C(F)(F)F)cc2)C(=O)N(C)CC(=O)N[C@@H](CCc2cc(F)c(C(F)(F)F)c(F)c2)C(=O)N2C[C@H](OCC)C[C@H]2C(=O)NC2(CC(C)(C)C2)C(=O)N(C)[C@@H](C2CCCC2)C(=O)N(C)[C@H](C(=O)N(C)CCC)CC(=O)N1C [PP2074] | A (a compound having 10 or more and less than 20 is denoted as A) | A (a compound having 10 or more and less than 20 is denoted as A) | 0.11 |
| C#CC[C@H]1C(=O)N[C@@H]([C@@H](C)CC)C(=O)N(C)CC(=O)N(C)[C@H]2C/C=C\CCN(C2=O)[C@@H](Cc2ccc(C(F)(F)F)cc2)C(=O)N(C)CC(=O)N[C@@H](CCc2cc(F)c(C(F)(F)F)c(F)c2)C(=O)N2C[C@@H](C)C[C@H]2C(=O)NC2(CC(C)(C)C2)C(=O)N(C)[C@@H](C2CCCC2)C(=O)N(C)[C@H](C(=O)N(C)CC)CC(=O)N1C [PP2075] | A (a compound having 10 or more and less than 20 is denoted as A) | A (a compound having 10 or more and less than 20 is denoted as A) | 0.22 |
| C#CC[C@H]1C(=O)N[C@@H]([C@@H](C)CC)C(=O)N(C)CC(=O)N(C)[C@H]2C/C=C\CCN(C2=O)[C@@H](Cc2ccc(C(F)(F)F)cc2)C(=O)N(C)CC(=O)N[C@@H](CCc2cc(F)c(C(F)(F)F)c(F)c2)C(=O)N2C[C@@H](C)C[C@H]2C(=O)NC2(CC(C)(C)C2)C(=O)N(C)[C@@H](C2CCCC2)C(=O)N(C)[C@H](C(=O)N(C)CCC)CC(=O)N1C [PP2076] | A (a compound having 10 or more and less than 20 is denoted as A) | A (a compound having 10 or more and less than 20 is denoted as A) | 0.39 |
| CCCN(C)C(=O)[C@@H]1CC(=O)N(C)[C@@H](C(C)C)C(=O)N[C@@H]([C@@H](C)CC)C(=O)N(C)CC(=O)N(C)[C@H]2C/C=C\CCN(C2=O)[C@@H](Cc2ccc(C(F)(F)F)cc2)C(=O)N(C)CC(=O)N[C@@H](CCc2cc(F)c(C(F)(F)F)c(F)c2)C(=O)N2C[C@@H](C)C[C@H]2C(=O)NC2(CCC2)C(=O)N(C)[C@@H](C2CCCC2)C(=O)N1C [PP2079] | A (a compound having 10 or more and less than 20 is denoted as A) | A (a compound having 10 or more and less than 20 is denoted as A) | 0.29 |
| CC[C@H](C)[C@@H]1NC(=O)[C@H](C2CC2)N(C)C(=O)C[C@@H](C(=O)N(C)CC)N(C)C(=O)[C@H](C2CCCC2)N(C)C(=O)C2(CCC2)NC(=O)[C@@H]2C[C@H](C)CN2C(=O)[C@H](CCc2cc(F)c(C(F)(F)F)c(F)c2)NC(=O)CN(C)C(=O)[C@H](Cc2ccc(C(F)(F)F)cc2)N2CC/C=C\C[C@@H](C2=O)N(C)C(=O)CN(C)C1=O [PP2080] | A (a compound having 10 or more and less than 20 is denoted as A) | A (a compound having 10 or more and less than 20 is denoted as A) | 0.093 |
| CCCN(C)C(=O)[C@@H]1CC(=O)N(C)[C@@H](C2CC2)C(=O)N[C@@H]([C@@H](C)CC)C(=O)N(C)CC(=O)N(C)[C@H]2C/C=C\CCN(C2=O)[C@@H](Cc2ccc(C(F)(F)F)cc2)C(=O)N(C)CC(=O)N[C@@H](CCc2cc(F)c(C(F)(F)F)c(F)c2)C(=O)N2C[C@@H](C)C[C@H]2C(=O)NC2(CCC2)C(=O)N(C)[C@@H](C2CCCC2)C(=O)N1C [PP2081] | A (a compound having 10 or more and less than 20 is denoted as A) | A (a compound having 10 or more and less than 20 is denoted as A) | 0.12 |
| CCCN(C)C(=O)[C@@H]1CC(=O)N(C)[C@@H](C2CCC2)C(=O)N[C@@H]([C@@H](C)CC)C(=O)N(C)CC(=O)N(C)[C@H]2C/C=C\CCN(C2=O)[C@@H](Cc2ccc(C(F)(F)F)cc2)C(=O)N(C)CC(=O)N[C@@H](CCc2cc(F)c(C(F)(F)F)c(F)c2)C(=O)N2C[C@@H](C)C[C@H]2C(=O)NC2(CCC2)C(=O)N(C)[C@@H](C2CCCC2)C(=O)N1C [PP2083] | B (a compound having 3 or more and less than 10 is denoted as B) | A (a compound having 10 or more and less than 20 is denoted as A) | 0.22 |
| C#CCN1CC(=O)N(C)[C@H]2C/C=C\CCN(C2=O)[C@@H](Cc2ccc(C(F)(F)F)cc2)C(=O)N(C)CC(=O)N[C@@H](CCc2cc(F)c(C(F)(F)F)c(F)c2)C(=O)N2C[C@H](OCC)C[C@H]2C(=O)NC2(CC(C)(C)C2)C(=O)N(C)[C@@H](C2CCCC2)C(=O)N(C)[C@H](C(=O)N(C)C)CC(=O)N(C)[C@@H](CC)C(=O)N[C@@H]([C@@H](C)CC)C1=O [PP2087] | A (a compound having 10 or more and less than 20 is denoted as A) | A (a compound having 10 or more and less than 20 is denoted as A) | 0.15 |
| CCC[C@H]1C(=O)N[C@@H]([C@@H](C)CC)C(=O)N(C2CC2)CC(=O)N(C)[C@H]2C/C=C\CCN(C2=O)[C@@H](Cc2ccc(C)cc2)C(=O)N(C)CC(=O)N[C@@H](CCc2cc(F)c(C(F)(F)F)c(F)c2)C(=O)N2C[C@H](OCC)C[C@H]2C(=O)NC2(CC(C)(C)C2)C(=O)N(C)[C@@H](C2CCCC2)C(=O)N(C)[C@H](C(=O)N(C)C)CC(=O)N1C [PP2093, (2S,8S,12R,14S,20S,23S,27S,30S,36S,38Z)-20-cyclopentyl-32-cyclopropyl-8-[2-[3,5-difluoro-4-(trifluoromethyl)phenyl]ethyl]-12-ethoxy-N,N,3′,3′,4,19,22,26,35-nonamethyl-30-[(1S)-1-methylpropyl]-3,6,9,15,18,21,25,28,31,34,42-undecaoxo-27-propyl-2-(p-tolylmethyl)spiro[1,4,7,10,16,19,22,26,29,32,35-undecazatricyclo[34.5.1.0^10,14]dotetracont-38-ene-17,1′-cyclobutane]-23-carboxamide] | A (a compound having 10 or more and less than 20 is denoted as A) | A (a compound having 10 or more and less than 20 is denoted as A) | 0.33 |
